Reference: patent publication US10774068B2, “Composition and methods for inhibiting mammalian sterile 20-like kinase 1” (The Scripps Research Institute, priority 2015, dated 2020)
Where two headings read alike, the source gives them in different places.

How the values were obtained:
MST1 = MST1 (Homo sapiens (Human), UniProt Q13043); assay: MST1 biochemical LanthaScreen Eu Kinase Binding Assay
Experimental: (§1) MST1 and MST2 biochemical LanthaScreen Eu Kinase Binding Assay was based on the binding and displacement of kinase tracer to the kinase of interest. Compounds in 1000×DMSO stock solution was dispensed using automated dispensing system (Labcyte) to 384 well Corning Microplate at 15 nL, 5 uL of Kinase buffer A was added to each well. Plates were shaken and incubated for 1 min to ensure well dissolution of compounds.

MST2 = MST2 (Homo sapiens (Human), UniProt Q13188); assay: MST2 biochemical LanthaScreen Eu Kinase Binding Assay
Chain of MST2 (Q13188 whole entry): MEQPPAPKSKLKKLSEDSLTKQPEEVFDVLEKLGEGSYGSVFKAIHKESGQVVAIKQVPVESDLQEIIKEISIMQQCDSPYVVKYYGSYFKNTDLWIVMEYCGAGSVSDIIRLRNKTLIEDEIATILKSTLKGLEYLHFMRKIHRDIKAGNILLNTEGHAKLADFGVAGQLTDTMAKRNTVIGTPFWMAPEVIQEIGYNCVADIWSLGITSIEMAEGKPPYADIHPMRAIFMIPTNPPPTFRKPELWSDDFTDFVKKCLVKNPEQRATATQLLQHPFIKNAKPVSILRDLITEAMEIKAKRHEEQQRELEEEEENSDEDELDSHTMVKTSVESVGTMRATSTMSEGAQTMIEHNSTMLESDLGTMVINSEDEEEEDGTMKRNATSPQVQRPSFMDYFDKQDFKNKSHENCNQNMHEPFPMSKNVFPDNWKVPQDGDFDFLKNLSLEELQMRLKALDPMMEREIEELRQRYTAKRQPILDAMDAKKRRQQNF
Experimental: as §1

[1] = read-out: Kinase Binding assay-MST1 IC50
[2] = read-out: Kinase Binding assay-MST2 IC50

Chain of MST1 (Q13043 whole entry): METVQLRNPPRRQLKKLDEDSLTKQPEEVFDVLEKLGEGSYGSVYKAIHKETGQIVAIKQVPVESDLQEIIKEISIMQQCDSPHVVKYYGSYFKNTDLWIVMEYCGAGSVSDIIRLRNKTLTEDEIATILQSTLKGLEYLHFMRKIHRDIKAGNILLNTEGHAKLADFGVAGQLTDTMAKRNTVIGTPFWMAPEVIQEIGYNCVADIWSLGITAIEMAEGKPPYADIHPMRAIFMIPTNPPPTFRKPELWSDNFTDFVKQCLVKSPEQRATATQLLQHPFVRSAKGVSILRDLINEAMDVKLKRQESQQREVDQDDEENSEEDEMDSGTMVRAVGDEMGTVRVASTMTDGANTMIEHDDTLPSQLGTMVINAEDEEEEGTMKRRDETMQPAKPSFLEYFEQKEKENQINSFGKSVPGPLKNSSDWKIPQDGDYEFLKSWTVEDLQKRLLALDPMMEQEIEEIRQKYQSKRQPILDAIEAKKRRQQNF

Row | SMILES | IC50 (MST1; [1]) [nM] | IC50 (MST2) [nM] | IC50 (MST2; [2]) [nM] | IC50 (MST1) [nM]
1 | CCOc1cc2ncc(C#N)c(Nc3ccc(OCc4ncccc4OC)c(Cl)c3)c2cc1NC(=O)CCCN(C)C [Example 18] | < 100 | 100 to 1000 | – | –
2 | CCOc1cc2ncc(C#N)c(Nc3ccc(OCc4ncccc4C#N)c(Cl)c3)c2cc1NC(=O)CCCN(C)C [Example 19] | < 100 | – | < 100 | –
3 | CCOc1cc2ncc(C#N)c(Nc3ccc(OCc4ncccc4C)cc3)c2cc1NC(=O)CCCN(C)C [Example 20] | < 100 | 100 to 1000 | – | –
4 | CCOc1cc2ncc(C#N)c(Nc3ccc(OCc4ncccc4C)c(C)c3)c2cc1NC(=O)CCCN(C)C [Example 21] | < 100 | 100 to 1000 | – | –
5 | CCOc1cc2ncc(C#N)c(Nc3ccc(OCc4ncccc4C)c(F)c3)c2cc1NC(=O)CCCN(C)C [Example 22] | < 100 | – | < 100 | –
6 | CCOc1cc2ncc(C#N)c(Nc3ccc(OCc4ncccc4C)cc3F)c2cc1NC(=O)CCCN(C)C [Example 23] | < 100 | – | < 100 | –
7 | CCOc1cc2ncc(C#N)c(Nc3ccc(OCc4ncccc4C)c(Br)c3)c2cc1NC(=O)CCCN(C)C [Example 24] | < 100 | – | < 100 | –
8 | CCOc1cc2ncc(C#N)c(Nc3ccc(OCc4ncccc4C)cc3Cl)c2cc1NC(=O)CCCN(C)C [Example 25, N-(4-((2-chloro-4-((3-methyl-pyridin-2-yl)methoxy)phenyl)amino)-3-cyano-7-ethoxyquinolin-6-yl)-4-(dimethylamino)butanamide] | < 100 | – | < 100 | –
9 | CCOc1cc2ncc(C#N)c(Nc3cc(Cl)c(OCc4ncccc4C)c(Cl)c3)c2cc1NC(=O)CCCN(C)C [Example 26] | < 100 | – | < 100 | –
10 | CCOc1cc2ncc(C#N)c(Nc3ccc(OCc4ncccc4C)c(C#N)c3)c2cc1NC(=O)CCCN(C)C [Example 27] | – | 1000 to 10000 | – | 100 to 1000
11 | CCOc1cc2ncc(C#N)c(Nc3ccc(OCc4ncccc4C)c(OC)c3)c2cc1NC(=O)CCCN(C)C [Example 28] | < 100 | – | < 100 | –
12 | CCOc1cc2ncc(C#N)c(Nc3ccc(OCc4ncccc4C)cc3C(F)(F)F)c2cc1NC(=O)CCCN(C)C [Example 29] | – | 100 to 1000 | – | 100 to 1000
13 | CCOc1cc2ncc(C#N)c(Nc3ccc(OCc4ncccc4C)cc3C#N)c2cc1NC(=O)CCCN(C)C [Example 30] | < 100 | 100 to 1000 | – | –
14 | CCOc1cc2ncc(C#N)c(Nc3ccc(OCc4ncccc4C)cc3C)c2cc1NC(=O)CCCN(C)C [Example 31] | < 100 | – | < 100 | –
15 | CCOc1cc2ncc(C#N)c(Nc3cc(C)c(OCc4ncccc4C)c(C)c3)c2cc1NC(=O)CCCN(C)C [Example 32] | < 100 | 100 to 1000 | – | –
16 | CCOc1cc2ncc(C#N)c(Nc3ccc(OCc4ncccc4C)c(C)c3C)c2cc1NC(=O)CCCN(C)C [Example 33] | < 100 | – | < 100 | –
17 | CCOc1cc2ncc(C#N)c(Nc3cc(C)c(OCc4ncccc4C)cc3C)c2cc1NC(=O)CCCN(C)C [Example 34] | < 100 | – | < 100 | –
18 | CCOc1cc2ncc(C#N)c(Nc3ccc(OCc4ncccc4Cl)c(Cl)c3)c2cc1NC(=O)CCCN(C)C [Example 35] | < 100 | – | < 100 | –
19 | CCOc1cc2ncc(C#N)c(Nc3ccc(OCc4cc(C#N)ccn4)c(Cl)c3)c2cc1NC(=O)CCCN(C)C [Example 36] | 100 to 1000 | 100 to 1000 | – | –
20 | CCOc1cc2ncc(C#N)c(Nc3ccc(OCc4cc(OC)ccn4)c(Cl)c3)c2cc1NC(=O)CCCN(C)C [Example 37] | < 100 | 100 to 1000 | – | –
21 | CCOc1cc2ncc(C#N)c(Nc3ccc(OCc4nccn4CC)c(Cl)c3)c2cc1NC(=O)CCCN(C)C [Example 38] | 100 to 1000 | 100 to 1000 | – | –
22 | CCOc1cc2ncc(C#N)c(Nc3ccc(OCc4ncc(C)o4)c(Cl)c3)c2cc1NC(=O)CCCN(C)C [Example 39] | < 100 | 100 to 1000 | – | –
23 | CCOc1cc2ncc(C#N)c(Nc3ccc(OCc4cc(C5CC5)on4)c(Cl)c3)c2cc1NC(=O)CCCN(C)C [Example 40] | 100 to 1000 | 100 to 1000 | – | –
24 | CCOc1cc2ncc(C#N)c(Nc3ccc(OCc4cn5cccc(C)c5n4)c(Cl)c3)c2cc1NC(=O)CCCN(C)C [Example 41] | < 100 | – | < 100 | –
25 | CCOc1cc2ncc(C#N)c(Nc3ccc(OCc4nc5ccccc5nc4C)c(Cl)c3)c2cc1NC(=O)CCCN(C)C [Example 42] | < 100 | 100 to 1000 | – | –
26 | CCOc1cc2ncc(C#N)c(Nc3ccc(OCc4cnc5c(c4)OCCO5)c(Cl)c3)c2cc1NC(=O)CCCN(C)C [Example 43] | 100 to 1000 | 1000 to 10000 | – | –
27 | CCOc1cc2ncc(C#N)c(Nc3ccc(OCc4ncccc4C4CC4)c(Cl)c3)c2cc1NC(=O)CCCN(C)C [Example 44] | 100 to 1000 | 100 to 1000 | – | –

Row | SMILES | IC50 (MST1; [1]) [nM] | IC50 (MST2) [nM] | IC50 (MST2; [2]) [nM] | IC50 (MST1) [nM]
28 | CCOc1cc2ncc(C#N)c(Nc3ccc(OCc4ncccc4CC)c(Cl)c3)c2cc1NC(=O)CCCN(C)C [Example 45] | < 100 | – | < 100 | –
29 | CCOc1cc2ncc(C#N)c(Nc3ccc(OCc4ccn(C)n4)c(Cl)c3)c2cc1NC(=O)CCCN(C)C [Example 67] | 100 to 1000 | 100 to 1000 | – | –
30 | CCOc1cc2ncc(C#N)c(Nc3ccc(OCc4ncccc4C)cc3Br)c2cc1NC(=O)CCCN(C)C [Example 74] | < 100 | – | < 100 | –
31 | CCOc1cc2ncc(C#N)c(Nc3cc(Cl)c(OCc4ncccc4C)cc3Cl)c2cc1NC(=O)CCCN(C)C [Example 75] | < 100 | – | < 100 | –
32 | CCOc1cc2ncc(C#N)c(Nc3ccc(OCc4nc(Br)ccc4C)c(Cl)c3)c2cc1NC(=O)CCCN(C)C [Example 76] | < 100 | – | < 100 | –
33 | CCOc1cc2ncc(C#N)c(Nc3ccc(OCc4nc(Br)ccc4C)cc3Cl)c2cc1NC(=O)CCCN(C)C [Example 77] | < 100 | – | < 100 | –
34 | CCOc1cc2ncc(C#N)c(Nc3cc(Cl)c(OCc4ncccc4C)cc3C)c2cc1NC(=O)CCCN(C)C [Example 78] | < 100 | – | < 100 | –
35 | CCOc1cc2ncc(C#N)c(Nc3cc(Cl)c(OCc4ncccc4C)cc3Br)c2cc1NC(=O)CCCN(C)C [Example 79] | < 100 | – | < 100 | –
36 | CCOc1cc2ncc(C#N)c(Nc3ccc(OCc4ncccc4C)c(OC(F)(F)F)c3)c2cc1NC(=O)CCCN(C)C [Example 80] | 100 to 1000 | 100 to 1000 | – | –
37 | CCOc1cc2ncc(C#N)c(Nc3ccc(OCc4ncccc4C(F)(F)F)cc3Cl)c2cc1NC(=O)CCCN(C)C [Example 81] | < 100 | – | < 100 | –
38 | CCOc1cc2ncc(C#N)c(Nc3ccc(OCc4ncccc4C(=O)OC)cc3Cl)c2cc1NC(=O)CCCN(C)C [Example 82] | 100 to 1000 | 100 to 1000 | – | –
39 | CCOc1cc2ncc(C#N)c(Nc3ccc(OCc4ncccc4CO)cc3Cl)c2cc1NC(=O)CCCN(C)C [Example 83] | < 100 | – | < 100 | –
40 | CCOc1cc2ncc(C#N)c(Nc3ccc(OCc4ncccc4C)c(Cl)c3)c2cc1NC(C)=O [Example 84, N-(4-(3-chloro-4-((3-methylpyridin-2-yl)methoxy)phenylamino)-3-cyano-7-ethoxyquinolin-6-yl)acetamide] | < 100 | – | < 100 | –
41 | CCOc1cc2ncc(C#N)c(Nc3ccc(OCc4ccccn4)c(Cl)c3)c2cc1NC(C)=O [Example 85] | < 100 | 1000 to 10000 | – | –
42 | CCOc1cc2ncc(C#N)c(Nc3ccc(OCc4ncccc4C)c(Cl)c3)c2cc1NC(=O)/C=C/CN(C)C [Example 90, (E)-N-(4-(3-chloro-4-((3-methylpyridin-2-yl)methoxy)phenylamino)-3-cyano-7-ethoxyquinolin-6-yl)-4-(dimethylamino)but-2-enamide] | < 100 | – | < 100 | –
43 | CCOc1cc2ncc(C#N)c(Nc3ccc(OCc4ncccc4C)c(OC)c3)c2cc1NC(=O)/C=C/CN(C)C [Example 92] | < 100 | – | < 100 | –
44 | CCOc1cc2ncc(C#N)c(Nc3ccc(OCc4ncccc4C)cc3C)c2cc1NC(=O)/C=C/CN(C)C [Example 93] | < 100 | – | < 100 | –
45 | CCOc1cc2ncc(C#N)c(Nc3cc(C)c(OCc4ncccc4C)cc3C)c2cc1NC(=O)/C=C/CN(C)C [Example 94] | < 100 | – | < 100 | –
46 | CCOc1cc2ncc(C#N)c(Nc3ccc(OCc4ccccn4)c(Cl)c3)c2cc1NC(=O)CCCN1CCCC1 [Example 95, N-(4-(3-chloro-4-(pyridin-2-ylmethoxy)phenylamino)-3-cyano-7-ethoxyquinolin-6-yl)-4-(pyrrolidin-1-yl)butanamide] | < 100 | 100 to 1000 | – | –
47 | CCOc1cc2ncc(C#N)c(Nc3ccc(OCc4ccccn4)c(Cl)c3)c2cc1NC(=O)CCCN1CCCCC1 [Example 97] | < 100 | 100 to 1000 | – | –
48 | CCOc1cc2ncc(C#N)c(Nc3ccc(OCc4ccccn4)c(Cl)c3)c2cc1NC(=O)CCCN1CCOCC1 [Example 99] | 100 to 1000 | 100 to 1000 | – | –
49 | CCOc1cc2ncc(C#N)c(Nc3ccc(OCc4ccccn4)c(Cl)c3)c2cc1NC(=O)CCCOC [Example 102] | 100 to 1000 | 100 to 1000 | – | –
50 | CCOc1cc2ncc(C#N)c(Nc3ccc(CCc4ccccn4)c(Cl)c3)c2cc1NC(=O)CCCN(C)C [Example 107, N-(4-(3-chloro-4-(2-(pyridin-2-yl)ethyl)phenylamino)-3-cyano-7-ethoxyquinolin-6-yl)-4-(dimethylamino)butanamide] | 100 to 1000 | – | 100 to 1000 | –
51 | CCOc1cc2ncc(C#N)c(Nc3ccc(NC(=O)c4ncccc4C)c(Cl)c3)c2cc1NC(=O)CCCN(C)C [Example 108, N-(2-chloro-4-(3-cyano-6-(4-(dimethylamino)butanamido)-7-ethoxyquinolin-4-ylamino)phenyl)-3-methylpicolinamide] | – | 100 to 1000 | – | 100 to 1000
52 | CCOc1cc2ncc(C#N)c(Nc3cccc(Cl)c3)c2cc1NC(C)=O [Example 127] | < 100 | – | < 100 | –
53 | CCOc1cc2ncc(C#N)c(Nc3ccc(O)cc3C)c2cc1NC(=O)CCCN(C)C [Example 139] | 100 to 1000 | 1000 to 10000 | – | –
